Experimental data taken from patent US7226911B2, “Hair keratin-associated proteins” (Keio University, priority 2001, dated 2007).

How the values were obtained:
[1] = system: hair cycle of mouse body hair; experiment: effect of the functional peptide to the hair cycle of mouse body hair; format: in vivo; conditions: C3H/He mouse, applied to skin, 1% peptide
Source text: For the application of KAPs as hair growth agent, there is a possible problem for permeability to tissues in an intact size. Therefore, from the point of view of being a hair constituent element, the minimum repeat unit on KAP sequences was searched and designing of peptides was attempted with the crosslinking within the tissues as a goal. After preparing alignment from the primary sequence of amino acid obtained in Example 7, repeat motifs are searched, and 2 functional peptides, namely mouse high sulfur type KAPs: N′-SCCXPSCCXP-C′ (X: Q, V, R, I) [Seq. ID No. 2031, and mouse high G/Y type KAPs: N′-YGGXGYGSGY-C′ (X: Y, L, F)[Seq. ID No. 204] were designed. By using these functional peptides, the action to hair formation and hair-matrix cells was evaluated. […] Peptide solvent (Plasebo) was used as a negative control, and […] MINOXIDIL was used as a positive control. […] The effect was significant compared not only with peptide solvent as a negative control (FIG. 30), but also with MINOXIDIL of the same concentration, being a positive control (FIG. 31).

mouse hair-matrix cells = experiment: action on isolated mouse hair-matrix cells (energy metabolism activity in the mitochondria; change of form); format: cell-based; conditions: during peptide treatment

N′-YGGXGYGSGY-C′ (X: Y, L, F) [high G/Y type peptide]
effect to the hair cycle of mouse body hair (duration until hair coat / formation of body hair) [1]: shortening effect of the duration until hair coat was observed
change of form of hair-matrix cells (mouse hair-matrix cells): a change of form of hair-matrix cells associated with the differentiation was observed
